Experimental data from BindingDB's records for doi:10.1016/S0960-894X(00)80454-0 (1992).

Experiment: In vitro binding affinity using [3H]LTB4 radioligand binding to leukotriene B4 receptor in human neutrophil binding assay

Ki [nM]	SMILES
3.5	CCCc1c(OCCCOc2cc(O)c(OCC)cc2CC)ccc2c1OC(C(=O)O)CC2 (configuration not stated) [7-[3-(4-Ethoxy-2-ethyl-5-hydroxy-phenoxy)-propoxy]-8-propyl-chroman-2-carboxylic acid]
1.9	CCCc1c(OCCCOc2cc(O)c(OC)cc2CC)ccc2c1OC(C(=O)O)CC2 (configuration not stated) [7-[3-(2-Ethyl-5-hydroxy-4-methoxy-phenoxy)-propoxy]-8-propyl-chroman-2-carboxylic acid]
